Biological target: Beta-2 adrenergic receptor (Homo sapiens, UniProt P07550)
Assay: Displacement of [3H]-CGP12,177 from immobilized Halo tag-fused beta2 adrenoceptor (unknown origin) expressed in Escherichia coli BL21 (DE3)

Sequence of Beta-2 adrenergic receptor (P07550 whole entry, the tested form may be a part): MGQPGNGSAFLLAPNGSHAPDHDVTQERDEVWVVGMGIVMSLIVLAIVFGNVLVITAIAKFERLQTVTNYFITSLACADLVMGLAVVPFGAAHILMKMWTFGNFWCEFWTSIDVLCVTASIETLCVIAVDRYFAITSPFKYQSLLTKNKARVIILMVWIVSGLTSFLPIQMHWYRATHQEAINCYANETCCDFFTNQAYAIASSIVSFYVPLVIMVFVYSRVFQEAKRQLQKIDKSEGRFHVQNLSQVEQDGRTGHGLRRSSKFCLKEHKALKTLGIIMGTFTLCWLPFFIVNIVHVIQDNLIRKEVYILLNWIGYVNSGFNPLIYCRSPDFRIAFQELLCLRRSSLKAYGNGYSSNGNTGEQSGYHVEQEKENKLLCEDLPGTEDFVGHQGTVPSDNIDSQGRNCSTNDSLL

CNC(C)Cc1ccccc1OC (stereo unspecified) [Methoxyphenamine]
Kd: 2.1 nM

Reference: BindingDB's records for PubMed 35671625 (Northwest University, 2022)
